The target in one assay is Cannabinoid receptor 1 (Rattus norvegicus, UniProt P20272). Description: Displacement of [3H]CP-55940 from CB1 receptor in rat brain. It counts as tissue-based. On the technique in general: In a radioligand displacement assay an active substance lowers the binding of a labelled ligand.
A further assay addresses Cannabinoid receptor 2 (Homo sapiens, UniProt P34972). The assay is described as follows: Displacement of [3H]CP-55940 from human cloned CB2 receptor.

Cannabinoid receptor 1, sequence (P20272 whole entry): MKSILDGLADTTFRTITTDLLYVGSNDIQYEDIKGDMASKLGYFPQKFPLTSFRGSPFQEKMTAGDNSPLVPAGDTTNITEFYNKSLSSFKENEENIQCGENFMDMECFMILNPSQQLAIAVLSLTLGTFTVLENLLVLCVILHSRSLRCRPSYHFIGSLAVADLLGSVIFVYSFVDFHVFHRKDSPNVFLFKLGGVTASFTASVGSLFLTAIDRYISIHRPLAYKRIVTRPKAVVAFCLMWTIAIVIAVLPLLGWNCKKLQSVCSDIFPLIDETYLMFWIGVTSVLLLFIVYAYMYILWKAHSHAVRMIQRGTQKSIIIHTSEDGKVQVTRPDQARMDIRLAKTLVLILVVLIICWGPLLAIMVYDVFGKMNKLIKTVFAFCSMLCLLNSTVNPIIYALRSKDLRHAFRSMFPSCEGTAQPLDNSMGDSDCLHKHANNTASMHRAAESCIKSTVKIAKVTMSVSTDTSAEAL
Cannabinoid receptor 2, sequence (P34972 whole entry): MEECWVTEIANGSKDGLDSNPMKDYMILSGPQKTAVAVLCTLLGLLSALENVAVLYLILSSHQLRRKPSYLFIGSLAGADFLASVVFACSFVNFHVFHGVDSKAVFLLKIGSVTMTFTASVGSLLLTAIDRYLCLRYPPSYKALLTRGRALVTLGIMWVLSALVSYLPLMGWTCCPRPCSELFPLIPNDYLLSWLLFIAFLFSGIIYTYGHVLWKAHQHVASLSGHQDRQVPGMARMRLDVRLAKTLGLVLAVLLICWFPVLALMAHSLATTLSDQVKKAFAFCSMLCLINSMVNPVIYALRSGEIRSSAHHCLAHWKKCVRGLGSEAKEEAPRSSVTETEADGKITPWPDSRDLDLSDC

In the case of `CCCCCn1cc(C(=O)c2cccc3ccccc23)cc1-c1ccccc1F`, the inhibition constant Ki on Cannabinoid receptor 1 worked out at 7.7 nM; at Cannabinoid receptor 2, 3.3 nM.

On to `CCCCCn1cc(C(=O)c2cccc3ccccc23)cc1-c1ccccc1`, for which the inhibitory constant (Ki) amounted to 14 nM at Cannabinoid receptor 1 and 6.4 nM at Cannabinoid receptor 2.

On to `CCCCCn1cc(C(=O)c2cccc3ccccc23)cc1-c1ccccc1C`, for which the Ki was 5.6 nM at Cannabinoid receptor 1 and 4 nM on Cannabinoid receptor 2.

Consider `CCCCCn1cc(C(=O)c2cccc3ccccc23)cc1-c1ccc(Cl)cc1`, for which the Ki at Cannabinoid receptor 1 is 276 nM; on Cannabinoid receptor 2 it was 25 nM.

Turning to `CCCCCn1cc(C(=O)c2cccc3ccccc23)cc1-c1cccc(C(F)(F)F)c1`, the inhibition constant (Ki) at Cannabinoid receptor 1 was determined as 245 nM; at Cannabinoid receptor 2, 71 nM.

For the compound `CCCCCn1cc(C(=O)c2cccc3ccccc23)cc1-c1cccc(F)c1`, the Ki turned out to be 16 nM at Cannabinoid receptor 1 and 9.1 nM on Cannabinoid receptor 2.

For the compound `CCCCCn1cc(C(=O)c2cccc3ccccc23)cc1-c1ccccc1OC`, the inhibition constant Ki on Cannabinoid receptor 1 stood at 29 nM; at Cannabinoid receptor 2 it was 20 nM.

On to `CCCCCn1cc(C(=O)c2cccc3ccccc23)cc1-c1cccnc1`, for which the figures for the Ki at Cannabinoid receptor 1 and on Cannabinoid receptor 2 were 191 nM and 24 nM, respectively.

Take `CCCCCCn1cc(C(=O)c2cccc3ccccc23)cc1-c1ccccc1`: the Ki at Cannabinoid receptor 1 came out at 11 nM; at Cannabinoid receptor 2, 7.1 nM.

Consider `CCCCCn1cc(C(=O)c2cccc3ccccc23)cc1-c1ccc(C(F)(F)F)cc1`, for which the Ki at Cannabinoid receptor 1 turned out to be 218 nM; at Cannabinoid receptor 2 it was 53 nM.

`CCCCCn1cc(C(=O)c2cccc3ccccc23)cc1-c1ccccc1CCCC`: the Ki on Cannabinoid receptor 1 came out at 60 nM; on Cannabinoid receptor 2, 69 nM.

With `CCCCCn1cc(C(=O)c2cccc3ccccc23)cc1-c1ccc2ccccc2c1`, the Ki was determined as 333 nM at Cannabinoid receptor 1 and 169 nM on Cannabinoid receptor 2.

Take `CCCCCn1cc(C(=O)c2cccc3ccccc23)cc1-c1ccccc1Cl`: the inhibitory constant (Ki) came to 7.9 nM on Cannabinoid receptor 1 and 5.2 nM at Cannabinoid receptor 2.

As for `CCCn1cc(C(=O)c2cccc3ccccc23)cc1-c1ccccc1`, the Ki amounted to 404 nM at Cannabinoid receptor 1 and 104 nM on Cannabinoid receptor 2.

`CCCCCn1cc(C(=O)c2cccc3ccccc23)cc1-c1ccc(CCCC)cc1`: the Ki at Cannabinoid receptor 1 worked out at 42 nM; on Cannabinoid receptor 2 it was 64 nM.

For `CCCCCn1cc(C(=O)c2cccc3ccccc23)cc1-c1cccc(Cl)c1`, the Ki at Cannabinoid receptor 1 was found to be 70 nM; on Cannabinoid receptor 2, 16 nM.

Consider `CCCCCn1cc(C(=O)c2cccc3ccccc23)cc1-c1ccc(OC)cc1`, for which the Ki on Cannabinoid receptor 1 was determined as 285 nM; at Cannabinoid receptor 2, 41 nM.

`CCCCCn1cc(C(=O)c2cccc3ccccc23)cc1-c1cccc(OC)c1`: the Ki worked out at 53 nM at Cannabinoid receptor 1 and 23 nM on Cannabinoid receptor 2.

As to `CCCCCn1cc(C(=O)c2cccc3ccccc23)cc1-c1cccc2ccccc12`, the Ki at Cannabinoid receptor 1 came out at 41 nM; on Cannabinoid receptor 2 it was 49 nM.

As to `CCCCCn1cc(C(=O)c2cccc3ccccc23)cc1-c1ccccc1CC`, the values for the Ki at Cannabinoid receptor 1 and at Cannabinoid receptor 2 were 17 nM and 3.4 nM, respectively.

For the compound `CCCCCn1cc(C(=O)c2cccc3ccccc23)cc1-c1cccc([N+](=O)[O-])c1`, the figures for the Ki on Cannabinoid receptor 1 and on Cannabinoid receptor 2 were 100 nM and 41 nM, respectively.

Consider `CCCCCn1cc(C(=O)c2cccc3ccccc23)cc1-c1cccc(C)c1`, for which the results for the Ki on Cannabinoid receptor 1 and at Cannabinoid receptor 2 were 67 nM and 39 nM, respectively.

Consider `CCCCCn1cc(C(=O)c2cccc3ccccc23)cc1-c1ccc(C)cc1`, for which the Ki is 130 nM on Cannabinoid receptor 1 and 18 nM at Cannabinoid receptor 2.

As for `CCCCCCCn1cc(C(=O)c2cccc3ccccc23)cc1-c1ccccc1`, the inhibition constant (Ki) on Cannabinoid receptor 1 came out at 21 nM; at Cannabinoid receptor 2, 62 nM.

In the case of `CCCCn1cc(C(=O)c2cccc3ccccc23)cc1-c1ccccc1`, the Ki at Cannabinoid receptor 1 is 60 nM; at Cannabinoid receptor 2, 15 nM.

`CCCCCn1cc(C(=O)c2cccc3ccccc23)cc1-c1ccc(F)cc1`: the Ki was 41 nM on Cannabinoid receptor 1 and 33 nM on Cannabinoid receptor 2.

`CCCCCn1cc(C(=O)c2cccc3ccccc23)cc1-c1ccc(CC)cc1`: the values for the Ki at Cannabinoid receptor 1 and at Cannabinoid receptor 2 were 34 nM and 29 nM, respectively.

As for `CCCCCn1cc(C(=O)c2cccc3ccccc23)cc1-c1ccccc1C(F)(F)F`, the Ki on Cannabinoid receptor 1 was determined as 77 nM; at Cannabinoid receptor 2, 8.2 nM.

The term Ki denotes a dissociation constant, usually derived from enzyme kinetics or from competition with a known ligand.

The values above are taken from ChEMBL document CHEMBL1137285, “1-Alkyl-2-aryl-4-(1-naphthoyl)pyrroles: new high affinity ligands for the cannabinoid CB1 and CB2 receptors” (Bioorg Med Chem Lett, 2006).
